Experimental data published in patent publication US20220218708A1, “METHODS FOR TREATING SMARCB1 DEFICIENT CANCER OR PAZOPANIB RESISTANT CANCER” (The Institute of Cancer Research:Royal Cancer Hospital, priority 2016, published 2022).

Experiments:
Assay type in all cases: cell-based
PDGFRα phosphorylation = target: T1, PDGFRα phosphorylation (Homo sapiens, UniProt P16234); experiment: Immunoprecipitation of PDGFRα and phosphotyrosine immunoblot; conditions: A204 cells; 1 μM for 1 hour
T1 construct: Immunoprecipitation of PDGFRα followed by immunoblotting with phosphotyrosine-specific antibody (PY1000) in A204 cells; endogenous in cells; host or cells: A204 cells
T1 sequence (P16234 24-1089): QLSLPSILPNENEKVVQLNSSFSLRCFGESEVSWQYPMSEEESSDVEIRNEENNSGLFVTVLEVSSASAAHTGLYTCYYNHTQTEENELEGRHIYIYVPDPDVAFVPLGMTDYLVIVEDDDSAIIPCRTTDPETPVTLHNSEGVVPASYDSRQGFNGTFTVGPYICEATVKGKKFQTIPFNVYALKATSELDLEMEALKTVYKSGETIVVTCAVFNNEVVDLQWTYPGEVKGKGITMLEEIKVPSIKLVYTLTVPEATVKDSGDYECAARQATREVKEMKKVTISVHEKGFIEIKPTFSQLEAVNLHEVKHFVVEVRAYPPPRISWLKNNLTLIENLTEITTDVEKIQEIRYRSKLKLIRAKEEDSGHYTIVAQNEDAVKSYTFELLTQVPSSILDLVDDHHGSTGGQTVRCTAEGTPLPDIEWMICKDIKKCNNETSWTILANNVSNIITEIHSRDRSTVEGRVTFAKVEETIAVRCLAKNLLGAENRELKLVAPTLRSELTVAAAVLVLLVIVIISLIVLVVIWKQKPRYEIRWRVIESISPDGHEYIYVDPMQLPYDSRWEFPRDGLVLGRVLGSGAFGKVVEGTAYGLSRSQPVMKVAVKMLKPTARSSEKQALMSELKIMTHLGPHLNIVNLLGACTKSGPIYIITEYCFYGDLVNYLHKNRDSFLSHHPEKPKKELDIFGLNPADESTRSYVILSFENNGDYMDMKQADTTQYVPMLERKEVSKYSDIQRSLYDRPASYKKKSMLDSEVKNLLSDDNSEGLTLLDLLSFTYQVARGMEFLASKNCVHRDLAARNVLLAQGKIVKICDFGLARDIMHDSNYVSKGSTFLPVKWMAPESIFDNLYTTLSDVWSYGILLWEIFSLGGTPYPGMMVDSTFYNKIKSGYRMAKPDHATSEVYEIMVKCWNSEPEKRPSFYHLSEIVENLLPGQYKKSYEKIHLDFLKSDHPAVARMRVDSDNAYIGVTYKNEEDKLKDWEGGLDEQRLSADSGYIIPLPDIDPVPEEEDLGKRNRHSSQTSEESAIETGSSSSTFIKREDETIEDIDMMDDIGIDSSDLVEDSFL
Procedure: For immunoprecipitation, cells were lysed in RIPA lysis buffer (contained 1% Triton) supplemented with protease and phosphatase inhibitors (Thermo Pierce) at 4° C. After microcentrifugation at 2,000 rpm. for 10 min, 200 μg of lysate was diluted in 200 ul lysis buffer. […] Protein G plus agarose beads were added and incubated for three hours at 4° C. to collect immune complexes, washed five times with lysis buffer and eluted in sample buffer. Proteins were resolved by SDS-PAGE, transferred to PVDF membrane and immunoblotting was performed as described above.

ERK1/2 phosphorylation = experiment: Immunoblot of ERK1/2 phosphorylation; conditions: MRT cells; drug treatment for 1 hour (FIG. 3H)
Procedure: (§1) After the indicated treatments, cells were lysed in RIPA lysis buffer at 4° C. Lysates were loaded onto SDS-PAGE gels followed by blotting onto PVDF membranes.
(§2) Details of antibodies, immunoprecipitation and immunofluorescence analyses are as follows. For immunoblotting, cells were lysed in RIPA lysis buffer supplemented with protease and phosphatase inhibitors (Thermo Pierce) at 4° C. Lysates were loaded onto SDS-PAGE gels followed by blotting onto PVDF membranes as described (Iwai et al., 2013). Blots were probed with primary antibodies followed by corresponding horseradish peroxidase-conjugated secondary antibodies. Primary antibodies include anti-PDGFRα #3174, CST; anti-pAKT (S473) #4058, CST; anti-AKT #4691, CST; anti-pERK-T202/Y204 #4370, CST; anti-ERK #9102, CST; anti-FGFR1 #76464, abcam; anti-BAF47 (SMARCB1) #61211, BD; anti-TFR #13-6890, ThermoFisherScientific; anti-pY1000 #8954, CST and anti-α-Tubulin #T5168, Sigma. Secondary antibodies include Polyclonal Goat Anti-Rabbit HRP #P0448, Dako and Anti-Mouse HRP #G32-62G-1000, Signalchem. Immunoreactive bands were visualized by chemiluminescence (Amersham) and the blots were exposed to x-ray XAR film (Kodak).

[1] = system: Pazopanib resistant A204 cells (PazR); experiment: Cell viability in acquired resistant subline; conditions: Homo sapiens
Procedure: (§3) Cells were grown initially in DMEM media containing drug concentration of 500 nM. The drug was incremented when the cells had proliferated to near confluency alongside minimal visible cell death. Drug concentration was incremented from 2 μM, 3 μM and 5 μM in a stepwise manner over 6 weeks. A final drug concentration of 5 μM was maintained in resistant cells. Media and drug were replenished twice weekly.
(§4) 2000 cells/well were seeded in a 96-well plate and treated with inhibitors at the indicated dose and combinations for 24 h for apoptosis measurement by Caspase-Glo 3/7 Assay (Promega), or for 72 hours in cell viability measurements by WST-1 (Abcam), following the manufacturer's recommendations. IC50 data were generated from dose-response curves fitted using a four-parameter regression fit in PRISM 5 software (GraphPad).

[2] = system: A204 cells (parental, MRT cell line); experiment: Cell viability (WST-1) dose response; conditions: for effect on cell viability: A204 cells, dose response; for IC50: Homo sapiens, cell viability
Procedure: (§5) For SILAC experiments, A204 cells and resistant sublines were cultured in SILAC DMEM media (Thermo Fisher Scientific) supplemented with light lysine and arginine (ROKO) (Sigma) and heavy lysine and arginine (R10K8) (Goss Scientific) respectively.
as §4

AKT phosphorylation = experiment: Immunoblot of AKT phosphorylation; conditions: MRT cells; drug treatment for 1 hour (FIG. 3H)
Procedure: as §1, §2

PazR cells = experiment: Annexin V staining, automated imaging
Procedure: as §3
Details for annexin V staining and siRNA transfections are as follows. For Annexin V staining, 3000 cells/well were seeded into 96-well CellCarrier plates (Perkin Elmer). 24 h after seeding, drugs were added and incubated for an additional 48 h. FITC-Annexin V (BD Biosciences) and Hoechst 33342 (Tocris) diluted in 10× annexin binding buffer (0.1M HEPES, 1.4M NaCl, 25 mM CaCl2) was added and incubated at 37° C. for 15 minutes. Plates were imaged using an Operetta high-content imager (Perkin Elmer). Images were analysed using Harmony software (Perkin Elmer), and annexin positivity defined as number of annexin-FITC-positive cells relative to total number of Hoechst-positive nuclei. The interaction between drugs was analysed by the Chou and Talalay median effect principle as described (Todd et al., 2014). siRNA transfections were performed as follows, 2000 cells/well were reverse transfected in 96-well plates with SMARTpool siRNAs (Dharmacon) using Lullaby reagent (Oz Biosciences). Where indicated, cells were treated with vehicle or drug 24 h post transfection. Apoptosis and cell viability were measured using Caspase 3/7 Glo and Cell Titre Glo (Promega), respectively, 72-96 h post transfection according to manufacturer's instructions and normalised to cells transfected with a non-targeting siRNA pool.

[3] = system: Sunitinib resistant A204 cells (SunR); experiment: Cell viability in acquired resistant subline; conditions: Homo sapiens
Procedure: as §3, §4

[4] = system: Dasatinib resistant A204 cells (DasR); experiment: Cell viability in acquired resistant subline; conditions: Homo sapiens
Procedure: as §3, §4

[5] = system: G402 cells (MRT cell line); experiment: Cell viability (WST-1) dose response; conditions: for IC50: Homo sapiens, G-402, G402, cell viability, 72 hours; for effect on cell viability: G402 cells, dose response
Procedure: as §5, §4

HT1080 cells = experiment: Cell viability (WST-1) dose response; conditions: Homo sapiens, HT-1080, 72 hours
Procedure: (§6) Cells were cultured in DMEM (A204, G402, Saos2, U2OS, HT1080, SW684, SW872, SW982, Hs729T, RUCH-3, T9195 and AN3CA), RPMI (RMS-YM and SJSA-1) or McCoy5A (MES-SA) media supplemented with 10% FBS/2 mM glutamine/100 units/ml penicillin/[…] streptomycin in 95% air/5% CO2 atmosphere at 37° C. For SILAC experiments, A204 cells and resistant sublines were cultured in SILAC DMEM media (Thermo Fisher Scientific) supplemented with light lysine and arginine (ROKO) (Sigma) and heavy lysine and arginine (R10K8) (Goss Scientific) respectively.
as §4

RMS-YM cells = experiment: Cell viability (WST-1) dose response; conditions: 72 hours
Procedure: as §6, §4

SW872 cells = experiment: Cell viability (WST-1) dose response; conditions: Homo sapiens, 72 hours
Procedure: as §6, §4

SW982 cells = experiment: Cell viability (WST-1) dose response; conditions: Homo sapiens, 72 hours
Procedure: as §6, §4

MES-SA cells = experiment: Cell viability (WST-1) dose response; conditions: Homo sapiens, 72 hours
Procedure: as §6, §4

SJSA-1 cells = experiment: Cell viability (WST-1) dose response; conditions: Homo sapiens, 72 hours
Procedure: as §6, §4

SAOS2 cells = experiment: Cell viability (WST-1) dose response; conditions: Homo sapiens, SAOS-2, 72 hours
Procedure: as §6, §4

T91-95 cells = experiment: Cell viability (WST-1) dose response; conditions: 72 hours
Procedure: as §6, §4

Hs729T cells = experiment: Cell viability (WST-1) dose response; conditions: 72 hours
Procedure: as §6, §4

SW684 cells = experiment: Cell viability (WST-1) dose response; conditions: Homo sapiens, 72 hours
Procedure: as §6, §4

RUCH-3 cells = experiment: Cell viability (WST-1) dose response; conditions: 72 hours
Procedure: as §6, §4

U2OS cells = experiment: Cell viability (WST-1) dose response; conditions: Homo sapiens, 72 hours
Procedure: as §6, §4

[6] = system: MRT cells (A204 and G402); experiment: Apoptosis by Caspase-Glo 3/7 assay; conditions: caspase 3/7 activity
Procedure: as §4

[7] = 72 h, Pazopanib resistant A204 cell line, single and combination drug treatment, Table S3
[8] = A204 Pazopanib resistant subline, cell viability, Table S2

Row | Compound | IC50 [1, 7] [µM] | effect on cell viability [2] | proportion of apoptotic cells compared to vehicle control (PazR cells) | IC50 [3] [µM] | IC50 [1, 8] [µM] | IC50 [4] [µM] | IC50 ([2]; A204, 72 hours, Table S1) [µM] | IC50 ([2]; A204 Parental, Table S2) [µM] | IC50 [5] [µM] | IC50 (HT1080 cells) [µM] | IC50 (RMS-YM cells) [µM] | IC50 (SW872 cells) [µM] | IC50 (SW982 cells) [µM] | IC50 (MES-SA cells) [µM] | IC50 (SJSA-1 cells) [µM] | IC50 (SAOS2 cells) [µM] | IC50 (T91-95 cells) [µM] | IC50 (Hs729T cells) [µM] | IC50 (SW684 cells) [µM] | IC50 (RUCH-3 cells) [µM] | also measured
1 | CCN1CCN(c2ccc(Nc3cc(N(C)C(=O)Nc4c(Cl)c(OC)cc(OC)c4Cl)ncn3)cc2)CC1 [BGJ398] | 0.247 | reduced viability | significant increase |  |  |  |  |  |  |  |  |  |  |  |  |  |  |  |  |  | PDGFRα phosphorylation (PDGFRα phosphorylation): no effects; ERK1/2 phosphorylation (ERK1/2 phosphorylation): decreased; AKT phosphorylation (AKT phosphorylation): no effect
2 | Cc1nc(Nc2ncc(C(=O)Nc3c(C)cccc3Cl)s2)cc(N2CCN(CCO)CC2)n1 [Dasatinib, dasatinib] |  |  |  | > 10 | > 10 | > 10 | 0.0418 | 0.0418 | 0.0623 | > 10 | > 10 | 1.04 | 0.188 | > 10 | > 10 | 1.15 | > 10 | > 10 | 0.0624 | > 10 | IC50 (U2OS cells): > 10 µM
3 | Cc1ccc(Nc2nccc(N(C)c3ccc4c(C)n(C)nc4c3)n2)cc1S(N)(=O)=O [Pazopanib, pazopanib] | > 10 |  | no effect | > 10 | > 10 | > 10 | 0.219 | 0.245 | 0.238 | > 10 | > 10 | > 10 | > 10 | > 10 | > 10 | > 10 | > 10 | > 10 | > 10 | > 10 | IC50 (U2OS cells): > 10 µM
4 | Cc1ccc(C(=O)Nc2ccc(CN3CCN(C)CC3)c(C(F)(F)F)c2)cc1C#Cc1cnc2cccnn12 [Ponatinib, 3-(2-imidazo[1,2-b]pyridazin-3-ylethynyl)-4-methyl-N-[4-[(4-methyl-1-piperazinyl)methyl]-3-(trifluoromethyl)phenyl]-benzamide] | 0.272 | sensitive | significant increase |  |  |  |  |  |  |  |  |  |  |  |  |  |  |  |  |  | ERK1/2 phosphorylation (ERK1/2 phosphorylation): suppression; effect on cell viability [5]: sensitive; AKT phosphorylation (AKT phosphorylation): suppression; apoptosis [6]: enhanced apoptosis
5 | CCN(CC)CCNC(=O)c1c(C)[nH]c(/C=C2\C(=O)Nc3ccc(F)cc32)c1C [Sunitinib, sunitinib] |  |  |  | > 10 | > 10 | 5.01 | 0.0363 | 0.0363 | 0.0369 | > 10 | > 10 | > 10 | 0.582 | > 10 | > 10 | 4.57 | > 10 | > 10 | > 10 | > 10 | IC50 (U2OS cells): > 10 µM
6 | AZD4547 |  | ineffective |  |  |  |  |  |  |  |  |  |  |  |  |  |  |  |  |  |  | effect on cell viability [5]: ineffective
